From patent US20240425464A1, “Substituted Monohydrazides as Potent Antifungal Agents” (University of Kentucky Research Foundation, priority 2023, published 2024)
≈ marks a conversion by molar mass, not a printed value. Read-outs that look alike come from different tables or passages of the source.

Key:
[1] = test system: C. albicans ATCC 10231 (strain A); test: MIC determination by in vitro antifungal assay (CLSI broth dilution); type: cell-based, Candida albicans; conditions: strain A = C. albicans ATCC 10231, no visible growth, 48 h at 35° C.
Experimental: (§1) 10 mg/mL stock solutions of compounds 1a-9j were prepared in dimethyl sulfoxide (DMSO) and were stored at −20° C. in the dark. The antifungal agent amphotericin B (AmB) was purchased from VWR (Radnor PA, USA). AmB was dissolved in DMSO at a final concentration of 5 mg/mL and was stored at −20° C., protected from light. Candida albicans American Type Culture Collection (ATCC) 10231 (strain A), C. albicans ATCC 64124 (B), and C. albicans ATCC MYA-2876 (C) were obtained from Utah State University. C. albicans ATCC 90819 (D), C. albicans ATCC MYA-2310 (E), C. albicans ATCC MYA-1237 (F), C. albicans ATCC MYA-1003 (G), Candida glabrata ATCC 2001 (H), Candida krusei ATCC 6258 (I), Candida parapsilosis ATCC 22019 (J), Cryptococcus neoformans ATCC MYA-895 (M), Aspergillus terreus ATCC MYA-3633 (N), and Aspergillus flavus ATCC MYA-3631 (0) were obtained from the American Type Culture Collection (ATCC; Manassas, VA, USA). Aspergillus nidulans ATCC 38163 (P) was obtained from University of Kentucky. Clinically derived Aspergillus fumigatus NRRL 163 (Q), A. fumigatus NRRL 5109 (R), and A. fumigatus NRRL 6113 (S) were obtained from Northern Regional Research Laboratory (NRRL). Candida auris 384 (K), C. auris 390 (L), and fungal strains 381-400 (including 10 C. auris (AR Bank #381-390), 3 Candida duobushaemulonii (AR Bank #391, AR Bank #392, and AR Bank #394), 2 Candida haemulonii (AR Bank #393 and AR Bank #395), 1 Kodameae ohmeri (AR Bank #396), 1 C. krusei (AR Bank #397), 1 Candida lusitaniae (AR Bank #398), and 2 Saccharomyces cerevisiae strains (AR Bank #399 and AR Bank #400)) were part of a larger fungal library from the AR Bank maintained by the Centers for Disease Control and Prevention (CDC; Atlanta, GA, USA). Filamentous fungi and yeasts were cultivated at 35° C. in RPMI 1640 medium (with L-glutamine, without sodium bicarbonate, Sigma-Aldrich, St. Louis, MO) buffered to a pH of 7.0 with 0.165 M morpholinepropanesulfonic acid (MOPS) buffer (Sigma-Aldrich). For cytotoxicity assays, HepG2 and the mouse macrophage cell line J774A.1 were obtained from University of Kentucky. The human embryonic kidney cell line, HEK-293, was bought from the ATCC. Mammalian cells were grown in Dulbecco's Modified Eagle's Medium (DMEM) (from VWR) with 10% fetal bovine serum (FBS) (from VWR) and 1% Pen/Strep (from ATCC). Cell lines were cultured at 37° C. with 5% CO2 and passaged by trypsinization with 0.05% trypsin: 0.53 mM EDTA (from Sigma-Aldrich).
(§2) The MIC values of compounds 1a-9j against yeast cells (strains A-P and 381-400) were determined in 96-well plates as described in the CLSI documents M27-A3 and M38-A2 with minor modifications.^2 A single colony of freshly prepared yeast cells was used to inoculate 5 mL of yeast extract peptone dextrose (YPD) broth prior to incubation overnight with shaking at 200 rpm at 35° C. From the actively growing yeast culture, 100 µL were then transferred to 900 μL of RPMI 1640 medium and re-adjusted to achieve OD600 of 0.12 (˜1×10^6 CFU/mL). The cell suspension was further diluted to achieve 1:100 in RPMI 1640 medium. 100 μL of cells were added to the wells of a 96-well microtiter plates that contained 100 µL of the compound solution to obtain concentrations of 0.06-31.3 μg/mL of compounds 1a-9j or AmB prior to incubation for 48 h at 35° C. […]

[2] = test system: Candida glabrata ATCC 2001 (H); test: MIC determination by in vitro antifungal assay; type: cell-based; conditions: ATCC 2001 in text
Experimental: as §1, §2

[3] = test system: Candida krusei ATCC 6258 (I); test: MIC determination by in vitro antifungal assay; type: cell-based
Experimental: as §1, §2

[4] = test system: Candida parapsilosis ATCC 22019 (J); test: MIC determination by in vitro antifungal assay; type: cell-based
Experimental: as §1, §2

[5] = test system: Aspergillus flavus ATCC MYA-3631 (O); test: MIC determination by in vitro antifungal assay; type: cell-based; conditions: strain O = A. flavus ATCC MYA-3631
Method in brief: (§3)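 Twofold dilutions spanning 0.06–31.3 μg/mL were incubated with fungi for 48 h at 35° C in MOPS-buffered RPMI 1640 (pH 7.0), following modified CLSI M27-A3 and M38-A2 methods. Yeast cells were grown overnight in YPD, set to OD600 0.12 (~1×10^6 CFU/mL), then diluted 1:100.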

[6] = test system: Aspergillus nidulans ATCC 38163 (P); test: MIC determination by in vitro antifungal assay; type: cell-based
Method in brief: as §3

[7] = test system: Cryptococcus neoformans ATCC MYA-895 (M); test: MIC determination by in vitro antifungal assay; type: cell-based; conditions: strain M = C. neoformans ATCC MYA-895
Method in brief: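 Overnight YPD cultures of yeast were adjusted in RPMI 1640 to OD600 0.12 (˜1×10^6 CFU/mL) and diluted 1:100. The cells were added to serially double-diluted compound (0.06-31.3 μg/mL) in MOPS-buffered RPMI 1640 at pH 7.0. Plates were then incubated at 35° C for 48 h.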

[8] = Candida albicans, ATCC10231, 48 h, read-out: MIC
[9] = Nakaseomyces glabratus, ATCC 2001 / ATCC 2004, strain H = C. glabrata ATCC 2004 (footnote), read-out: MIC
[10] = Pichia kudriavzevii, ATCC6258, strain I = C. krusei ATCC 6258, read-out: MIC
[11] = Lodderomyces parapsilosis, ATCC22019, strain J = C. parapsilosis ATCC 22019, read-out: MIC
[12] = Aspergillus flavus, read-out: MIC
[13] = Aspergillus nidulans, ATCC38163, strain P = A. nidulans ATCC 38163, read-out: MIC
[14] = Cryptococcus neoformans, read-out: MIC
[15] = strain H = C. glabrata ATCC 2004 (footnote)
[16] = strain J = C. parapsilosis ATCC 22019
[17] = strain P = A. nidulans ATCC 38163

With O=C(NNc1cc(Cl)cc(Cl)c1)c1ccc(F)cc1F [Compound 1j] the MIC [1, 8] was 3.9 µg/mL (≈ 12.3 µM), the MIC [2, 9] was over 31.3 µg/mL and the MIC [3, 10] was 1.95 µg/mL (≈ 6.15 µM). For the same compound, the MIC ([3]; against strain I) was 1.95 j·tg mL^−1, the MIC [4, 11] was over 31.3 µg/mL and the MIC [5, 12] was over 31.3 µg/mL. For the same compound, the MIC [6, 13] was 15.6 µg/mL (≈ 49.2 µM) and the MIC [7, 14] was 7.8 µg/mL (≈ 24.6 µM).
O=C(NNc1cccc(F)c1)c1ccccn1 [Compound 2a] showed an MIC [1] of at most 0.06 μg/mL^−1, an MIC [2, 15] of 1.95 μg/mL^−1 and an MIC ([3]; strain I = C. krusei ATCC 6258) of 0.24 μg/mL^−1. It also gave an MIC [4, 16] of 1.95 μg/mL^−1, an MIC [5] of 7.8 μg/mL^−1 and an MIC [6, 17] of 3.9 μg/mL^−1. The MIC [7] was 0.12 μg/mL^−1.
Work on O=C(NNc1cccc(Cl)c1)c1ccccn1 [Compound 2b] yielded an MIC [1] of 0.12 μg/mL^−1, an MIC [2, 15] of 1.95 μg/mL^−1 and an MIC ([3]; strain I = C. krusei ATCC 6258) of 0.49 μg/mL^−1. The MIC [4, 16] was 1.95 μg/mL^−1, the MIC [5] was over 31.3 μg/mL^−1 and the MIC [6, 17] was 0.24 μg/mL^−1. The MIC [7] was 0.12 μg/mL^−1.
For COc1cccc(NNC(=O)c2ccccn2)c1 [Compound 2c], the MIC [1] was 0.24 μg/mL^−1, the MIC [2, 15] was 13.6 μg/mL^−1 and the MIC ([3]; strain I = C. krusei ATCC 6258) was 0.49 μg/mL^−1. The MIC [4, 16] was 3.9 μg/mL^−1, the MIC [5] was over 31.3 μg/mL^−1 and the MIC [6, 17] was 1.95 μg/mL^−1. It also gave an MIC [7] of 0.24 μg/mL^−1.
O=C(NNc1ccc(F)cc1)c1ccccn1 [Compound 2d] was tested, and the MIC [1, 8] was 0.12 µg/mL (≈ 0.519 µM), the MIC [2, 9] was 1.95 µg/mL (≈ 8.43 µM) and the MIC [3, 10] was 0.12 µg/mL (≈ 0.519 µM). It also gave an MIC [4, 11] of 1.95 µg/mL (≈ 8.43 µM), an MIC [5, 12] of 31.3 µg/mL (≈ 135 µM) and an MIC [6, 13] of 0.49 µg/mL (≈ 2.12 µM). For the same compound, the MIC [7, 14] was 0.24 µg/mL (≈ 1.04 µM).
With O=C(NNc1ccc(Cl)cc1)c1ccccn1 [Compound 2e] the MIC [1] was 0.12 μg/mL^−1, the MIC [2, 15] was 1.95 μg/mL^−1 and the MIC ([3]; strain I = C. krusei ATCC 6258) was 1.95 μg/mL^−1. The MIC [4, 16] was 3.9 μg/mL^−1, the MIC [5] was 31.3 μg/mL^−1 and the MIC [6, 17] was 0.49 μg/mL^−1. For the same compound, the MIC [7] was 0.49 μg/mL^−1.
Compound COc1ccc(NNC(=O)c2ccccn2)cc1 [Compound 2f] has an MIC [1, 8] of 0.12 µg/mL (≈ 0.493 µM), an MIC [2, 9] of 0.98 µg/mL (≈ 4.03 µM) and an MIC [3, 10] of 0.49 µg/mL (≈ 2.01 µM). It also gave an MIC [4, 11] of 3.9 µg/mL (≈ 16 µM), an MIC [5, 12] of over 31.3 µg/mL and an MIC [6, 13] of 0.49 µg/mL (≈ 2.01 µM). For the same compound, the MIC [7, 14] was 0.49 µg/mL (≈ 2.01 µM).
For O=C(NNc1ccc(F)cc1F)c1ccccn1 [Compound 2g], the MIC [1, 8] was 0.12 µg/mL (≈ 0.482 µM), the MIC [2, 9] was 0.98 µg/mL (≈ 3.93 µM) and the MIC [3, 10] was 0.49 µg/mL (≈ 1.97 µM). It also gave an MIC [4, 11] of 1.95 µg/mL (≈ 7.82 µM), an MIC [5, 12] of 15.6 µg/mL (≈ 62.6 µM) and an MIC [6, 13] of 0.49 µg/mL (≈ 1.97 µM). The MIC [7, 14] was 0.24 µg/mL (≈ 0.963 µM).
O=C(NNc1cc(F)ccc1F)c1ccccn1 [Compound 2h] showed an MIC [1, 8] of 0.12 µg/mL (≈ 0.482 µM), an MIC [2, 9] of 3.9 µg/mL (≈ 15.6 µM) and an MIC [3, 10] of 0.24 µg/mL (≈ 0.963 µM). It also gave an MIC [4, 11] of 3.9 µg/mL (≈ 15.6 µM), an MIC [5, 12] of 3.9 µg/mL (≈ 15.6 µM) and an MIC [6, 13] of 0.49 µg/mL (≈ 1.97 µM). The MIC [7, 14] was 0.49 µg/mL (≈ 1.97 µM).
O=C(NNc1cc(F)cc(F)c1)c1ccccn1 [Compound 2i] showed an MIC [1, 8] of at most 0.06 µg/mL, an MIC [2, 9] of 7.8 µg/mL (≈ 31.3 µM) and an MIC [3, 10] of 0.24 µg/mL (≈ 0.963 µM). It also gave an MIC [4, 11] of 1.95 µg/mL (≈ 7.82 µM), an MIC [5, 12] of 1.95 µg/mL (≈ 7.82 µM) and an MIC [6, 13] of 0.49 µg/mL (≈ 1.97 µM). The MIC [7, 14] was 0.24 µg/mL (≈ 0.963 µM).
For COc1cccc(NNC(=O)c2ccc(F)cn2)c1 [Compound 3c], the MIC [1] was 0.24 μg/mL^−1, the MIC ([3]; strain I = C. krusei ATCC 6258) was 0.24 μg/mL^−1 and the MIC [4, 16] was 3.9 μg/mL^−1. It also gave an MIC [5] of over 31.3 μg/mL^−1, an MIC [6, 17] of 1.95 μg/mL^−1 and an MIC [7] of 0.24 μg/mL^−1.
